# In patent publication US20260174739A1 (priority 2022, published 2026):
# Target: human NET (Homo sapiens, UniProt P23975)
# Assay: NET transporter inhibitory activity test (neurotransmitter transporter uptake assay kit)
# Type: cell-based
# Description: Transporter inhibition of human DAT and NET expressed in HEK-293 cells was assessed using a neurotransmitter transporter uptake assay kit. The assay was performed as described in the kit instructions, using centanafadine as a positive control. The specific procedures were as follows:
# First day cell plating: HEK 293T cells were digested with trypsin, centrifuged, resuspended with a medium, counted, and seeded into a 6 cm culture dish at a density of 3×10^6 cells/well.
# Second day cell transfection: HEK 293T cells were subjected to medium exchange, and then A, B tubes were prepared for NET-pcDNA5/FRT plasmid to be transfected. 200 μL of Opti-MEM was added to tube A, and 10 μL of Lipofectamine™ 3000 was added. The mixture was mixed well. 200 μL of Opti-MEM was added to tube B, and 5 μg of NET-pcDNA5/FRT plasmid was added. The mixture was mixed well, and then 10 μL of P3000™ was added to tube B. The mixture was mixed well (plasmid to transfection reagent ratio 1 μg:2 μL). The diluted solution of tube A was added to the diluted solution of tube B. The mixture was mixed well, and incubated at room temperature for 15 min. Finally, the mixture was gently added to the cells that had been subjected to medium exchange, gently shaken to mix, and then incubated overnight in an incubator at 37° C. with a carbon dioxide concentration of 5%. The cells were used for compound functional activity assays 18-20 h after transfection.
# • a) After overnight transfection of NET cells, the cells were digested with trypsin, resuspended with DMEM+10% Dialyzed FBS medium, seeded into a 384-well plate at 20000 cells/well, and incubated overnight. Stably transfected DAT cells were digested with trypsin, resuspended with DMEM+10% Dialyzed FBS medium, seeded into a 384-well plate at 2500 cells/well, and incubated overnight. • b) 1× Assay buffer was prepared according to the kit instruction for later use; the positive compound and the test compound were serially diluted with DMSO, and then diluted to 2× with 1× assay buffer. • c) The medium was removed from the 384-well plate by centrifugation. • d) 16 μL of the compound prepared in step b) was added to corresponding experimental wells, wherein an initial concentration of 2× positive control compound was added to the positive control well, and 0.2% DMSO buffer was added to the negative control well. After centrifuging, the plate was incubated at 37° C. for 30 min. • e) A detection reagent was prepared using 1×HBSS, and 16 μL of the detection reagent was added to each well. After centrifuging, the plate was incubated at 37° C. for 60 min. • f) After incubation, the reading at 510 nm under the excitation of the detection wavelength of 425 nm was measured using a microplate reader. Curve fitting and IC50 calculation were performed using GraphPad Prism software nonlinear regression method.
# human NET, sequence (P23975 whole entry): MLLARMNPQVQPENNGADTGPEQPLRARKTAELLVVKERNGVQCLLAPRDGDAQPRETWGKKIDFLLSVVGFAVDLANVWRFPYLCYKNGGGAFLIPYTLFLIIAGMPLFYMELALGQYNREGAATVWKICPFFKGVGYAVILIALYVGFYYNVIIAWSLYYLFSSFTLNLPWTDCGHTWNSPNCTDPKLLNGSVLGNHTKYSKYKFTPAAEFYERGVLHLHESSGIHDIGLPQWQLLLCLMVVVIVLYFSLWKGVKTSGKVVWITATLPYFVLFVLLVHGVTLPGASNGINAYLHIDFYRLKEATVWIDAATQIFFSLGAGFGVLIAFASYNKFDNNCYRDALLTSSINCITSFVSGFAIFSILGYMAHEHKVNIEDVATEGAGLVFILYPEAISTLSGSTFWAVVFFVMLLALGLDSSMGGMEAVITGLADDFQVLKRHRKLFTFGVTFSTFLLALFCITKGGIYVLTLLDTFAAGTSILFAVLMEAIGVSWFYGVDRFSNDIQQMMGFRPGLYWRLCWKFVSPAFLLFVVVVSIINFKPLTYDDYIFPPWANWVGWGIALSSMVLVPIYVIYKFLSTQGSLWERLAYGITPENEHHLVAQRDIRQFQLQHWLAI
compound,measurement,value
"CCNC1(c2ccccc2)CCc2nc(N)sc2C1 (racemic) [rac-A5, N^6-ethyl-6-phenyl-4,5,6,7-tetrahydrobenzothiazole-2,6-diamine]",IC50,3.3 µM
